In PubChem BioAssay (NCI):
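Here, GI50 denotes the concentration required for 50% inhibition of growth. TGI marks complete inhibition of growth.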

What was measured:
Assay in all cases: growth of human tumour cells (NCI), 384-well format
OVCAR-8 ovarian = test system: OVCAR-8 ovarian
MDA-MB-435 melanoma = test system: MDA-MB-435 melanoma
NCI-H322M lung = test system: NCI-H322M lung
SR leukemia = test system: SR leukemia
A549 NSCLC = test system: A549 NSCLC
NCI-H23 lung = test system: NCI-H23 lung
UACC-257 melanoma = test system: UACC-257 melanoma
A498 renal = test system: A498 renal
OVCAR-4 ovarian = test system: OVCAR-4 ovarian
T-47D breast = test system: T-47D breast
SK-MEL-5 melanoma = test system: SK-MEL-5 melanoma
HL-60(TB) leukemia = test system: HL-60(TB) leukemia
NCI-H460 NSCLC = test system: NCI-H460 NSCLC

CCCS(=O)(=O)Nc1ccc(F)c(C(=O)c2c[nH]c3ncc(-c4ccc(Cl)cc4)cc23)c1F
GI50 (OVCAR-8 ovarian): 7.8 µM | TGI (OVCAR-8 ovarian): 15.7 µM | GI50 (MDA-MB-435 melanoma): 0.281 µM | TGI (MDA-MB-435 melanoma): 14.6 µM | GI50 (NCI-H322M lung): 4.65 µM | TGI (NCI-H322M lung): 16 µM | GI50 (SR leukemia): 1.67 µM | TGI (SR leukemia): 4.22 µM | GI50 (A549 NSCLC): 3.99 µM | TGI (A549 NSCLC): 10.8 µM | GI50 (NCI-H23 lung): 4.19 µM | TGI (NCI-H23 lung): 13.2 µM | GI50 (UACC-257 melanoma): 0.347 µM | GI50 (A498 renal): 2.96 µM | TGI (A498 renal): 9.4 µM | GI50 (OVCAR-4 ovarian): 8.45 µM | TGI (OVCAR-4 ovarian): 20.6 µM | GI50 (T-47D breast): 6.77 µM | TGI (T-47D breast): 16.9 µM | GI50 (SK-MEL-5 melanoma): 0.0794 µM | TGI (SK-MEL-5 melanoma): 1.81 µM | GI50 (HL-60(TB) leukemia): 0.902 µM | TGI (HL-60(TB) leukemia): 5.03 µM | GI50 (NCI-H460 NSCLC): 4.97 µM | TGI (NCI-H460 NSCLC): 13.6 µM
